In paper PMC3395220 (Journal of Medicinal Chemistry, 2012):
Where two headings read alike, the source gives them in different places.

What was measured:
T-47D = type: cell-based, human; conditions: 10^Δ2-x, relative to compound 2
HOP-62 = type: cell-based, human; conditions: 10^Δ2-x, relative to compound 2
NCI-H460 = type: cell-based, human; conditions: 10^Δ2-x, relative to compound 2
HCT-116 = type: cell-based, human; conditions: 10^Δ2-x, relative to compound 2
IGROV1 = type: cell-based, human; conditions: 10^Δ2-x, relative to compound 2
CAKI-1 = type: cell-based, human; conditions: 10^Δ2-x, relative to compound 2
SK-MEL28 = type: cell-based, human; conditions: 10^Δ2-x, relative to compound 2
HS578T = type: cell-based, human; conditions: 10^Δ2-x, relative to compound 2
A498 = type: cell-based, human; conditions: 10^Δ2-x, relative to compound 2
PC-3 = type: cell-based, human; conditions: 10^Δ2-x, relative to compound 2
786-0 = type: cell-based, human; conditions: 10^Δ2-x, relative to compound 2
Plasma pharmacokinetics = type: in vivo, CD-1 mice; conditions: mice, iv 18 mg/kg
SW-620 = type: cell-based, human; conditions: 10^Δ2-x, relative to compound 2
SK-MEL-2 melanoma cells = test: Subcutaneous SK-MEL-2 melanoma xenograft; type: in vivo, athymic nu/nu mice; conditions: iv q2dx10 at 10 mg/Kg and q3dx10 at 20 mg/Kg
OVCAR-8 = type: cell-based, human; conditions: 10^Δ2-x, relative to compound 2
OVCAR-5 = type: cell-based, human; conditions: 10^Δ2-x, relative to compound 2
LOX IMVI = type: cell-based, human; conditions: 10^Δ2-x, relative to compound 2
MDA-MB-468 = type: cell-based, human; conditions: 10^Δ2-x, relative to compound 2
SK-OV-3 = type: cell-based, human; conditions: 10^Δ2-x, relative to compound 2
K-562 = type: cell-based, human; conditions: 10^Δ2-x, relative to compound 2
EKVX = type: cell-based, human; conditions: 10^Δ2-x, relative to compound 2
RXF 393 = type: cell-based, human; conditions: 10^Δ2-x, relative to compound 2
NCI-H23 = type: cell-based, human; conditions: 10^Δ2-x, relative to compound 2
SN12C = type: cell-based, human; conditions: 10^Δ2-x, relative to compound 2
HOP-92 = type: cell-based, human; conditions: 10^Δ2-x, relative to compound 2
[1] = test system: COLO-205 (colon), A549 (non-small cell lung) and BXCP3 (pancreas); test: cells; type: cell-based; conditions: 72 h, read-out: average GI50 (50% of growth inhibition)
HT29 = type: cell-based, human; conditions: 10^Δ2-x, relative to compound 2
60 cancer cell lines = test: cells; type: cell-based, human; conditions: for GI50: Homo sapiens
SR = type: cell-based, human; conditions: 10^Δ2-x, relative to compound 2
SNB-19 = type: cell-based, human; conditions: 10^Δ2-x, relative to compound 2
TK-10 = type: cell-based, human; conditions: 10^Δ2-x, relative to compound 2
MDA-MB-231/ATCC = type: cell-based, human; conditions: 10^Δ2-x, relative to compound 2
SNB-75 = type: cell-based, human; conditions: 10^Δ2-x, relative to compound 2
A549/ATCCC = type: cell-based, human; conditions: 10^Δ2-x, relative to compound 2
KM12 = type: cell-based, human; conditions: 10^Δ2-x, relative to compound 2
COLO 205 = type: cell-based, human; conditions: 10^Δ2-x, relative to compound 2
HCC-2998 = type: cell-based, human; conditions: 10^Δ2-x, relative to compound 2
SF-539 = type: cell-based, human; conditions: 10^Δ2-x, relative to compound 2
UACC-257 = type: cell-based, human; conditions: 10^Δ2-x, relative to compound 2
DU-145 = type: cell-based, human; conditions: 10^Δ2-x, relative to compound 2
NCI-H522 = type: cell-based, human; conditions: 10^Δ2-x, relative to compound 2
ACHN = type: cell-based, human; conditions: 10^Δ2-x, relative to compound 2
NCI/ADR-RES = test: cells; type: cell-based, human
[2] = Tolerability during xenograft treatment; type: in vivo, athymic nu/nu mice; conditions: iv q2dx10 10 mg/Kg and q3dx10 20 mg/Kg, colon and melanoma models
HL-60(TB) = type: cell-based, human; conditions: 10^Δ2-x, relative to compound 2
CCRF-CEM = type: cell-based, human; conditions: 10^Δ2-x, relative to compound 2
MOLT-4 = type: cell-based, human; conditions: 10^Δ2-x, relative to compound 2
SF-268 = type: cell-based, human; conditions: 10^Δ2-x, relative to compound 2
OVCAR-3 = type: cell-based, human; conditions: 10^Δ2-x, relative to compound 2
M14 = type: cell-based, human; conditions: 10^Δ2-x, relative to compound 2
BT-549 = type: cell-based, human; conditions: 10^Δ2-x, relative to compound 2
OVCAR-4 = type: cell-based, human; conditions: 10^Δ2-x, relative to compound 2

## CO[C@@H]([C@@H]1Cc2cc3cc(O[C@H]4C[C@@H](O[C@H]5C[C@@H](O)[C@H](O)[C@@H](C)O5)[C@H](O)[C@@H](C)O4)c(C)c(O)c3c(O)c2C(=O)[C@H]1O[C@H]1C[C@@H](O[C@H]2C[C@@H](O[C@H]3C[C@H](O)[C@H](O)[C@@H](C)O3)[C@H](O)[C@@H](C)O2)[C@H](O)[C@@H](C)O1)[C@@H](O)C(C)=O [Compound 9, demycarosyl-3D-β-D-digitoxosyl-mithramycin SK]
T-47D
  activity improvement factor: 1.74
HOP-62
  activity improvement factor: 2.26
NCI-H460
  activity improvement factor: 1.19
HCT-116
  activity improvement factor: 1.17
IGROV1
  activity improvement factor: 7.16
CAKI-1
  activity improvement factor: 1.64
SK-MEL28
  activity improvement factor: 1.46
HS578T
  activity improvement factor: 1.76
A498
  activity improvement factor: 2.24
PC-3
  activity improvement factor: 4.62
786-0
  activity improvement factor: 1.88
Plasma pharmacokinetics; after 30 min
  plasma level: ~1,7 μM
Plasma pharmacokinetics; after 120 min
  plasma level: below 0,1 μM
SW-620
  activity improvement factor: 1.30
SK-MEL-2 melanoma cells
  growth of SK-MEL-2 human melanoma xenografts: markedly delayed
OVCAR-8
  activity improvement factor: 1.51
OVCAR-5
  activity improvement factor: 1.97
LOX IMVI
  activity improvement factor: 1.23
MDA-MB-468
  activity improvement factor: 1.48
SK-OV-3
  activity improvement factor: 3.85
K-562
  activity improvement factor: 1.40
EKVX
  activity improvement factor: 1.60
RXF 393
  activity improvement factor: 0.86
NCI-H23
  activity improvement factor: 1.86
SN12C
  activity improvement factor: 1.70
HOP-92
  activity improvement factor: 1.11
[1]
  GI50: 300 to 1300 nM
HT29
  activity improvement factor: 3.55
60 cancer cell lines; read-out: Mean GI50
  GI50: 30 nM
60 cancer cell lines; read-out: Mean log(GI50) (converted)
  GI50: 30.2 nM
60 cancer cell lines; NCI-60 GI50
  fold more active than 10, in average: about 5 fold
SR
  activity improvement factor: 1.11
SNB-19
  activity improvement factor: 1.55
TK-10
  activity improvement factor: 2.45
MDA-MB-231/ATCC
  activity improvement factor: 2.75
SNB-75
  activity improvement factor: 0.93
A549/ATCCC
  activity improvement factor: 2.04
KM12
  activity improvement factor: 1.66
COLO 205
  activity improvement factor: 2.26
HCC-2998
  activity improvement factor: 3.76
SF-539
  activity improvement factor: 1.30
UACC-257
  activity improvement factor: 1.66
DU-145
  activity improvement factor: 4.47
NCI-H522
  activity improvement factor: 0.79
ACHN
  activity improvement factor: 4.47
NCI/ADR-RES; 10^Δ2-x, relative to compound 2
  activity improvement factor: 0.15
NCI/ADR-RES; Homo sapiens
  GI50: > 10000 nM
[2]
  tolerability in xenograft-bearing mice: well tolerated and no signs of toxicity or deaths
HL-60(TB)
  activity improvement factor: 2.24
CCRF-CEM
  activity improvement factor: 1.14
MOLT-4
  activity improvement factor: 2.43
SF-268
  activity improvement factor: 1.40
OVCAR-3
  activity improvement factor: 3.51
M14
  activity improvement factor: 2.19
BT-549
  activity improvement factor: 0.94
OVCAR-4
  activity improvement factor: 3.76
